In the NIST ThermoML archive (doi:10.1016/j.jct.2009.06.007):

How the values were obtained:
[1] = xn = mol fraction of the nth substance listed; settings: 298.15 K, 101 kPa, Liquid; for viscosity: Capillary tube (Ostwald / Ubbelohde) method; for mass density: Vibrating tube method
[2] = refractive index (Na D-line) (dimensionless); xn = mol fraction of the nth substance listed; settings: 298.15 K, 101 kPa, Liquid, Standard Abbe refractometry
[3] = 298.15 K, 101.33 kPa, Liquid

COC(C)=O [methyl ethanoate] + CO
Settings | mass density, [1] [kg/m3] | refractive index, [2] | viscosity, [1] [mPa·s]
x1 = 0.0939 | 810.62 | 1.3322 | 0.491
x1 = 0.1986 | 833.17 | 1.33757 | 0.452
x1 = 0.3009 | 851.78 | 1.34192 | 0.417
x1 = 0.4016 | 867.5 | 1.3456 | 0.393
x1 = 0.4943 | 880.02 | 1.34851 | 0.378
x1 = 0.5851 | 890.77 | 1.35095 | 0.369
x1 = 0.6941 | 902.17 | 1.35349 | 0.361
x1 = 0.7694 | 909.19 | 1.35503 | 0.358
x1 = 0.8875 | 918.93 | 1.35712 | 0.358

CCCCCCCCn1cc[n+](C)c1.O=S(=O)([N-]S(=O)(=O)C(F)(F)F)C(F)(F)F + COC(C)=O
Settings | mass density, [1] [kg/m3] | refractive index, [2] | viscosity, [1] [mPa·s]
x2 = 0.0699 | 1314.77 | 1.4319 | 75.62
x2 = 0.1317 | 1308.87 | 1.43089 | 63.25
x2 = 0.1748 | 1304.45 | 1.43009 | 56.12
x2 = 0.2177 | 1299.57 | 1.42927 | 49.13
x2 = 0.3226 | 1285.83 | 1.42694 | 33.76
x2 = 0.4105 | 1271.88 | 1.42453 | 23.79
x2 = 0.5011 | 1253.68 | 1.42124 | 15.98
x2 = 0.6001 | 1228.33 | 1.41684 | 9.815
x2 = 0.6992 | 1193.95 | 1.41055 | 5.527
x2 = 0.7872 | 1151.29 | 1.40296 | 3.066
x2 = 0.8984 | 1067.39 | 1.387 | 1.206

CCCCCCCCn1cc[n+](C)c1.O=S(=O)([N-]S(=O)(=O)C(F)(F)F)C(F)(F)F + CO
Settings | mass density, [1] [kg/m3] | refractive index, [2] | viscosity, [1] [mPa·s]
x2 = 0.0654 | 1316.5 | 1.43207 | 78.34
x2 = 0.0863 | 1315.1 | 1.43188 | 74.57
x2 = 0.2134 | 1305.18 | 1.42995 | 53.65
x2 = 0.3138 | 1295.08 | 1.42809 | 40.77
x2 = 0.3873 | 1285.91 | 1.42619 | 32.92
x2 = 0.5038 | 1267.04 | 1.42266 | 22.27
x2 = 0.6155 | 1240.79 | 1.41741 | 14.57
x2 = 0.7018 | 1210.98 | 1.41157 | 9.493
x2 = 0.805 | 1154.04 | 1.40017 | 4.919
x2 = 0.902 | 1052.54 | 1.38017 | 2.144

CCCCCCCCn1cc[n+](C)c1.O=S(=O)([N-]S(=O)(=O)C(F)(F)F)C(F)(F)F
[3]
Settings | mass density [kg/m3] | viscosity [mPa·s]
Capillary tube (Ostwald / Ubbelohde) method | – | 92.51
Pycnometric method | 1320.59 | –
